The conditions of data set [1]: human, in vivo.
Method: • Figure 1 illustrates a comparison of the number of hypersensitivity Adverse Events between groups of patients in whom 2,2'-dithio-bis-ethane sulfonate or a placebo was infused over (1) 30 minutes, (2) 30 and 45 minutes, or (3) 45 minutes. […] Drug concentrations of disodium 2,2'-dithio-bis-ethane sulfonate administered were 200 mg/mL infused over 30 minutes, 200 mg/mL and 100 mg/mL infused over 30 & 45 minutes, respectively, and 100 mg/mL infused over 45 minutes.
The patients' body surface area (BSA) was determined based on the use of standard methods that are customarily used for such purposes, including standardized nomograms and calculations that utilize the individual height and weight data from each patient.
Figure 1 illustrates a comparison of the number of hypersensitivity Adverse Events between groups of patients in whom 2,2'-dithio-bis-ethane sulfonate or a placebo was infused over (1) 30 minutes, (2) 30 minutes and 45 minutes, or (3) 45 minutes. In addition, the total number of hypersensitivity Adverse Events, the mean time to the first hypersensitivity Adverse Event, and a variety of the types of hypersensitivity Adverse Events were also shown.
Drug concentrations administered were about 200 mg/mL infused over about 30 minutes, about 200 mg/mL and about 100 mg/mL infused over about 30 & about 45 minutes, respectively, and about 100 mg/mL infused over about 45 minutes.
A further data set relates to tubulin. The note with it: paclitaxel 6 µM; cited from earlier work.
For data set [2], the system named is patients with advanced non-small cell lung carcinoma (NSCLC). As to the kind of experiment: Japan Phase III Clinical Trial (paclitaxel + cisplatin, placebo-controlled; PNQ primary evaluation). As to conditions: paclitaxel/Tavocept/cisplatin vs paclitaxel/saline placebo/cisplatin, NSCLC patients (Figure 5). It is filed as in vivo, human. As for the experimental part: The Japan Phase III Clinical Trial was conducted as a double-blind study because peripheral neuropathy is diagnosed based on subjective symptoms evaluated through clinical interviews, lab tests, and the like. Accordingly, evaluations by both physicians and patients are highly important. […] A placebo was used as control since there is no established therapy or drug for preventing peripheral neuropathy. Because the severity of peripheral neuropathy is evaluated based on patients' reports (i.e., subjective symptoms), the Peripheral Neuropathy Questionnaire (PNQ^© was used in primary evaluation. The CIPN-20 questionnaire and the National Cancer Institute - Common Toxicity Criteria (NCI-CTC) were used in secondary evaluation. The incidence and severity of adverse reactions, time to their onset, etc. and the like, were compared between patients treated with Tavocept™ and those given a placebo using the aforementioned methods.
The Primary Endpoint of the Japan Phase III Clinical Trial described in the present invention was specifically designed to test the hypothesis of whether chemotherapy-induced intermittent peripheral neuropathy would occur. […] The results illustrated in Figure 3 indicate that intermittent peripheral neuropathy was specifically identified and measured in the Japan Phase III Clinical Trial. […]

Data set [3] has as its system paclitaxel-induced neuropathy model. As to the kind of experiment: Paclitaxel-induced thermoparesthesia in the paclitaxel-induced neuropathy model. Type of data set: in vivo, rats. As to conditions: for maximum inhibition rate (thermoparesthesia): paclitaxel 6 mg/kg i.v. 5-times every other day.

Take `O=S(=O)([O-])CCSSCCS(=O)(=O)[O-].[Na+].[Na+]` [Tavocept, disodium 2,2'-dithio-bis-ethane sulfonate]: in data set [1], the “reduction in hypersensitivity Adverse Events in the treatment population” value is not above 57%. In the data set with tubulin, the “concentration that inhibits tubulin polymerization induced by paclitaxel” value is given as 6 mM. The “reduction in severe (Grade D or E) intermittent or cumulative peripheral neuropathy” value in data set [2] was approximately 50%. The “maximum inhibition rate (thermoparesthesia)” value in data set [3] (1,000 mg/kg) is recorded as 41.7%; in data set [3] (2,000 mg/kg), 41.5%. The “inhibition rates of thermoparesthesia” value in data set [3] (2,000 mg/kg i.v. immediately after paclitaxel 12 mg/kg i.p. once a week for 5 weeks) is listed as 19.2-34.1%.

Source of the values: patent publication EP2252246B1, “CHEMOPROTECTIVE METHODS AND COMPOSITIONS” (BIONUMERIK PHARMACEUTICALS, INC., priority 2008, dated 2009).
